Measurements as given in patent US20200030388A1, “COMPOSITIONS FOR MODIFYING GUT MICROBIOTA” (priority 2017, published 2020).
Several values for one entry are separate records, joined by “and”; a condition that tells them apart may be missing. Equal values may be shown once. Read-outs that look alike come from different tables or passages of the source. Marks after values point to notes of the source that are not given here.

Legend:
[1] = tested on: Gut Microbiota in HFD-Fed Mice; experiment: Gut microbiota classification by next generation sequencing (Example 4); format: in vivo, mouse; conditions: for abundance of Firmicutes: 12 weeks (HFD group 43.0%); for abundance of Bacteroidetes: 12 weeks (HFD group 50.2%); for OTUs difference between ND and HFD groups (Venn diagram): 12 weeks, FIG. 23A
Protocol: Total DNA was extracted from fresh fecal samples by using the innuPREP Stool DNA kit (Analytik Jena AG, Jena, Germany) according to the manufacturer's instructions. According to the concentration, DNA was diluted to 1 ng μ L^−1 using sterile water. 6SrRNA/18SrRNA/ITS genes of distinct region (16SV4/16SV3/16SV3-V4/16SV4-V5, 18S V4/18S V9, ITS1/ITS2, Arc V4) were amplified using a specific primer (e.g. 16SV4: 515F-806R, 18S V4: 528F-706R, and 18S V9: 1380F-1510R) with a barcode. All PCR reactions were carried out using a Phusion® High-Fidelity PCR master mix (New England Biolabs, Ipswich, Mass., USA). The PCR products were mixed in ratios of equal density. Then, the mixed PCR products were purified using a Qiagen gel extraction kit (Qiagen, Hilden, Germany). Sequencing libraries were generated using the TruSeq® DNA PCR-free sample preparation kit (Illumina, San Diego, Calif., USA) following the manufacturer's recommendations, and index codes were added. The library quality was assessed using the Qubit@ 2.0 Fluorometer (Thermo Scientific) and Agilent Bioanalyzer 2100 system. Lastly, the library was sequenced using an Illumina HiSeq 2500 platform, and 250 bp paired-end reads were generated. The classification was based on the Greengenes database (https://greengenes.lbl.gov/).

[2] = tested on: HFD-Induced Obese Mice (C57BL/6); experiment: GAR, FOR, LMIX, HMIX in HFD-induced obese mice, 12 weeks (Example 4); conditions: for Final weight / Weight gain: 0.01% GAR, 0.025% FOR, LMIX, HMIX
Protocol: (§1) Four-week-old, male C57BL/6 mice were purchased from the BioLASCO Experimental Animal Center (Taiwan Co., Ltd., Taipei, Taiwan) and housed in a controlled atmosphere (25±1° C. at 50% relative humidity) with a 12 h light/12 h dark cycle. After 1 week of acclimation, animals were randomly distributed into 6 groups as follows: normal diet (ND, 15% energy from fat), high-fat diet (HFD, 50% energy from lard-based fat), and HFD supplemented with 0.01% garcinol (GAR group), 0.025% Forskolin (FOR group), 0.005% GAR+0.025% FOR (LMIX group), and 0.01% Gar+0.025% For (HMIX group) for 12 weeks. […] Animals had free access to food and water. Food consumption was monitored daily and the body weight was recorded weekly. At the end of the experiments, all animals were sacrificed by CO2 asphyxiation. Blood samples were collected from the heart for biochemical analysis. The liver, spleen, kidney, fat pads (perigonadal, retroperitoneal, and mesenteric fat), and fresh fecal pellets were immediately removed and stored at −80° C. until further analysis.
(§2) Liver and the perigonadal adipose tissue were dissected and fixed in 10% buffered formalin for at least 24 h, dehydrated with a sequence of ethanol solutions, and processed for embedding in paraffin. Sections of 4 μm in thickness were cut, deparaffinized, rehydrated, stained with hematoxylin and eosin (H&E), and subjected to photo microscopic observation. Adipocyte size was measured at 100× magnification and determined by Image J software (U. S. National Institutes of Health, Bethesda, Md., USA).

[3] = tested on: HFD-Induced Obese Mice (C57BL/6); conditions: mouse, in vivo
Protocol: as §1, §2

[4] = tested on: High Fat Diet Induced Obesity in C57 Mice; experiment: High fat diet induced obesity in C57 mice, 16 weeks (Example 1); format: in vivo, mouse; conditions: for Change in weight / Final weight / Kidney weight / Pancreas Weight / Spleen Weight / Mesenteric Fat / Peri-gonadal Fat / Retroperitoneal Fat: HFD; for Change in weight / Final weight / Mesenteric Fat / Peri-gonadal Fat / Retroperitoneal Fat: 120 days
Protocol: C57/BL6 mice, 6-8 weeks of age and 8 animals/Group (4 Male and 4 Female) were used for the study. Animals were housed under standard laboratory conditions, air-conditioned with adequate fresh air supply (12-15 Air changes per hour), room temperature 20.2-23.5° C. and relative humidity 58-64% with 12 hours fluorescent light and 12 hours dark cycle. The temperature and relative humidity was recorded once daily.
The animals were fed with Normal diet (9 kcal/day) and High fat diet (50 kcal/day) throughout the acclimatization and experimental period.
The design of the study groups is depicted in table 2.
Body weight of the animals was recorded in all the days of experimental period. At the end of the experimental period, the animals were sacrificed by cervical dislocation. Blood was collected and Serum was separated by centrifugation and used for the analysis of biochemical parameters. The organs such as Liver Kidney, Spleen and Pancreas and Fat Tissues (Retroperitoneal, Peri-gonadal and Mesenteric) were dissected out and washed in phosphate buffered saline.
The following parameters were measured in the above groups: • Measurement of Body weight • Determination of Organ Weight • Estimation of Cholesterol (Zak et al., ([…]) A new method for the determination of serum cholesterol. J Clin Endocrinol Metab., 94(7), 2215-2220) • Estimation of Triglycerides (Foster L. B and Dunn R. T. (1973) Stable reagents for determination of serum triglycerides by a colorimetric Hantzsch condensation method. Clin Chem. 196, 338-340). • Estimation of HDL Cholesterol (Burstein et al., (1970). Determination of HDL cholesterol. J. lipid Res., 11, 583). • Determination of LDL and VLDL (Friedewald et al., (1972) Estimation of the concentration of Low Density Lipoprotein cholesterol in plasma without use of preparative centrifuge. J. Clin Chem.; 18:499).

[5] = tested on: Mouse 3T3-L1 pre-adipocytes; experiment: Adipogenesis inhibition in 3T3-L1 cells, Oil red O staining; format: cell-based; conditions: 3T3-L1 adipocytes, read-out: inhibition of lipid accumulation
Protocol: Garcinol (20%) stock of 10 mg/ml was prepared in DMSO and filtered through 0.2 micron syringe filter. Stock was diluted 1000 times in DMEM to get 10 μg/ml final concentration and serially diluted. Insulin (Hi Media) was bought as a solution at a concentration of 20 mg/ml. This was diluted to 1 μg/ml in DMEM. IBMX-(Sigma)—Stock of 5 mM was prepared in DMEM, and diluted 10 times to be used at a final concentration of 0.5 mM. Dexamethasone (Sigma)—A stock of […] was prepared in DMEM and diluted 40 times to get a final concentration of 0.25 μM
Mouse 3T3-L1 pre-adipocytes were cultured in DMEM containing 25 mM glucose with 10% heat-inactivated fetal calf serum with antibiotics at 37° C. and 5% CO2. When the cells were 70-80% confluent, they were trypsinized, washed and seeded in 6 well plates at a density of 2×10^6 cells per well. Cells were induced to differentiate 2 d after reaching confluence (day 0), by supplementing DMEM media containing 10% Fetal Bovine Serum (FBS) along with 1 μg/mL insulin, 0.25 μM dexamethasone, 0.5 mM 1-methyl-3-isobutyl-xanthine (IBMX) and different concentrations of Garcinol (20%). From day 3 until day 7, cells were maintained in progression media supplemented with 1 μg/mL insulin and different concentrations of Garcinol (20%). […] Quantification for amount of triglycerides accumulated in adipocytes was done by Oil red O staining.

[6] = tested on: HFD-fed C57BL/6 male mice; experiment: Garcinol versus garcinol blend in HFD-fed C57BL/6 mice, 16 weeks (Example 3); format: in vivo, mouse
Protocol: The present invention studied the anti-obesity effects of garcinol compared to a composition comprising garcinol, pterostilbene and anthocyanin (garcinol blend (GB) in mammals. The study was conducted in vivo on 5 weeks old C57BL/6 male mice. A total of 42 mice were involved in this study with 6 groups of 7 mice each. The groups were divided as in table 8.
The high fat diet (HFD) groups were fed 45% high fat diet for 16 weeks for the induction of obesity and concurrently administered the test substance as indicated in the aforesaid table. The normal group was fed with normal diet for 16 weeks.
Body weight was monitored weekly, and the average body weight of each group (n=7) was expressed as the means±SE.

[7] = tested on: HFD-induced Obesity in C57BL/6 mice; experiment: HFD-induced obesity in C57BL/6 mice, 13 weeks (Example 2); format: in vivo, mouse; conditions: for GPT / HDL / LDL / LDL/HDL / T-CHO / TG: plasma; for percentage frequency of adipocytes, Adipocyte Size area 2000 / percentage frequency of adipocytes, Adipocyte Size area 15000 / percentage frequency of adipocytes, Adipocyte Size area >350000: perigonadal adipose tissue
Text: After one week of acclimation, animals were randomly distributed into normal diet (ND, 15% energy as fat), HFD (50% energy as fat), and HFD with 0.1% or 0.5% garcinol groups of eight mice in each group for 13 weeks. The experimental diets were modified from the Purina 5001 diet (LabDiet, PMI Nutrition International, St. Louis, Mo., USA). The animals had ad libitum access to food and water. Food cups were replenished with a fresh diet every day. […] Upon termination of the study, the animals were sacrificed by CO2 asphyxiation and dissected, and the weights of their whole bodies and selected tissues, including the liver, kidney, spleen, adipose tissues (perigonadal, retroperitoneal, and mesenteric fat) and serum were immediately collected, weighed, and photographed.
Sections of 3-5 μm in thickness were cut, deparaffinized, rehydrated, stained with H&E, and subjected to photomicroscopic assessment. Adipocyte size was determined using Image J software (Rasband, W. S., ImageJ, U.S. National Institutes of Health, Bethesda, Md., USA).
Blood samples were collected from the left ventricle under anesthesia. The samples were mixed in 10 μL of heparin sodium and centrifuged at 3500 rpm and 4° C. for 10 min. The plasma was then stored at −80° C. until use. Glutamic-pyruvic transaminase (GPT), total cholesterol (TC), TG, high-density lipoprotein (HDL), and low-density lipoprotein (LDL) levels were analyzed at the National Laboratory Animal Center, NLAC (Taipei, Taiwan) on a 7080 Biochemical Analyzer (Hitachi, Tokyo, Japan) according to the manufacturer's instructions.

## C=C[C@@]1(C)CC(=O)[C@]2(O)[C@@]3(C)[C@@H](O)CCC(C)(C)[C@@H]3[C@H](O)[C@H](OC(C)=O)[C@@]2(C)O1 [FOR, Forskolin, reference compound]
[1]
  abundance of Firmicutes: 33.5%
  abundance of Bacteroidetes: 62.2%
  OTUs difference between ND and HFD groups (Venn diagram): 34 OTUs
[2]
  Final weight: 30.5 g and 30.5 ± 2.6^c g
  Weight gain: 9.1 ± 1.8^c g
[2]; organ weight
  Liver: 1.5 ± 0.2^bc g
[3]
  Kidney: 0.4 ± 0.02^a g
  Spleen: 0.06 ± 0.01^a g

## C=C(C)[C@@H](CC=C(C)C)C[C@@]12C[C@@H](CC=C(C)C)C(C)(C)[C@@](CC=C(C)C)(C(=O)C(C(=O)c3ccc(O)c(O)c3)=C1O)C2=O [garcinol]
[4]; G5: garcinol 5 mg/kgbw
  Change in weight: 10.03 ± 2.25 g
  Final weight: 29.33 ± 1.47 g
[4]; G10: garcinol 10 mg/kgbw
  Change in weight: 10.25 ± 1.39 g
  Final weight: 28.25 ± 1.39 g
[4]; G20: garcinol 20 mg/kgbw
  Change in weight: 7.62 ± 2.18 g
  Final weight: 27.37 ± 1.88 g
[4]; G40: garcinol 40 mg/kgbw
  Change in weight: 6.28 ± 1.03 g
  Final weight: 26.00 ± 1.33 g
[4]; Group III: garcinol 5 mg/kgbw
  Kidney weight: 0.49 ± 0.03 g wet tissue
  Pancreas Weight: 0.23 ± 0.01 g wet tissue
  Spleen Weight: 0.25 ± 0.02 g wet tissue
  Mesenteric Fat: 0.63 ± 0.07 g wet tissue
  Peri-gonadal Fat: 1.33 ± 0.32 g wet tissue
  Retroperitoneal Fat: 0.45 ± 0.06 g wet tissue
[4]; Group IV: garcinol 10 mg/kgbw
  Kidney weight: 0.42 ± 0.03 g wet tissue
  Pancreas Weight: 0.17 ± 0.01 g wet tissue
  Spleen Weight: 0.20 ± 0.01 g wet tissue
  Mesenteric Fat: 0.56 ± 0.05 g wet tissue
  Peri-gonadal Fat: 1.17 ± 0.22 g wet tissue
  Retroperitoneal Fat: 0.43 ± 0.05 g wet tissue
[4]; Group V: garcinol 20 mg/kgbw
  Kidney weight: 0.45 ± 0.06 g wet tissue
  Pancreas Weight: 0.21 ± 0.02 g wet tissue
  Spleen Weight: 0.22 ± 0.03 g wet tissue
  Mesenteric Fat: 0.601 ± 0.08 g wet tissue
  Peri-gonadal Fat: 1.35 ± 0.21 g wet tissue
  Retroperitoneal Fat: 0.46 ± 0.06 g wet tissue
[4]; Group VI: garcinol 40 mg/kgbw
  Kidney weight: 0.42 ± 0.04 g wet tissue
  Pancreas Weight: 0.22 ± 0.02 g wet tissue
  Spleen Weight: 0.23 ± 0.02 g wet tissue
  Mesenteric Fat: 0.59 ± 0.05 g wet tissue
  Peri-gonadal Fat: 1.41 ± 0.14 g wet tissue
  Retroperitoneal Fat: 0.46 ± 0.04 g wet tissue
[4]; kidney, spleen, pancreas, Table 5
  weight of the organs (adverse effects): did not adversely affect
[1]
  abundance of Firmicutes: 33.9%
  abundance of Bacteroidetes: 62.4%
  OTUs difference between ND and HFD groups (Venn diagram): 26 OTUs
[2]
  Weight gain: 12.7 ± 2.0^b g
[2]; listed as GAR
  Final weight: 34.4 g and 34.4 ± 2.6^b g
[2]; organ weight
  Kidney: 0.4 ± 0.03^a g
  Liver: 1.6 ± 0.2^b g
  Spleen: 0.06 ± 0.01^a g
[5]; 5 μg/ml
  inhibition at 5 µg/mL: 47.8%
[5]; 10 μg/ml
  inhibition at 10 µg/mL: 47.2%
[6]; HFD + 0.1% test substance
  Final weight: 32.1 ± 2.6^b g
  Weight gain: 10.5 ± 2.1^b g
[6]; HFD + 0.5% test substance
  Final weight: 25.4 ± 0.8^b g
  Weight gain: 3.9 ± 0.6^b g
[7]; 0.5% garcinol, HFD, 13 weeks
  decrease of mesenteric fat weight compared to the HFD group: 77.7%
  decrease of perigonadal fat weight compared to the HFD group: 85.1%
  decrease of retroperitoneal fat weight compared to the HFD group: 92.4%
[7]; HFD + 0.1% Gar
  GPT: 20.5 ± 7.26^b U/L
  HDL: 152.6 ± 9.73^a mg/dL
  LDL: 33.3 ± 0.72^b mg/dL
  LDL/HDL: 0.22 ± 0.02^b
  T-CHO: 179.7 ± 11.85^b mg/dL
  TG: 69.6 ± 19.90^ab mg/dL
[7]; HFD + 0.1% garcinol
  percentage frequency of adipocytes, Adipocyte Size area 2000: 8.38 ± 5.3^b
  percentage frequency of adipocytes, Adipocyte Size area 15000: 4.03 ± 1.0^a
  percentage frequency of adipocytes, Adipocyte Size area >350000: 3.32 ± 1.5^b
[7]; HFD + 0.5% Gar
  GPT: 27.6 ± 3.72^ab U/L
  HDL: 118.7 ± 13.22^b mg/dL
  LDL: 24.9 ± 4.47^c mg/dL
  LDL/HDL: 0.21 ± 0.03^b
  T-CHO: 137.9 ± 11.78^c mg/dL
  TG: 55.6 ± 4.95^b mg/dL
[7]; HFD + 0.5% garcinol
  percentage frequency of adipocytes, Adipocyte Size area 2000: 19.2 ± 3.9^a
  percentage frequency of adipocytes, Adipocyte Size area 15000: 1.36 ± 0.9^b
  percentage frequency of adipocytes, Adipocyte Size area >350000: 0.00 ± 0.0^c
